Reference: patent US7741348B2, “Bisheterocycle tandem compounds useful as antiviral agents, the uses thereof and the compositions comprising such compounds” (Shanghai Institute of Materia Medica, Chinese Academy of …, priority 2005, dated 2010)
≈ marks a conversion by molar mass, not a printed value. Like-named read-outs stand apart in the source and are kept apart here.

Assays:
herpes virus II (HSV-II) = assay: Anti herpes virus II activity, cytopathic effect in Vero cells; assay type: cell-based; conditions: read-out: Anti herpes virus II HSV-II (IC50)
Excerpt: (§1) 3. Screening of the compounds for the anti-herpes virus I and II activity: Vero (African green monkey kidney) cells were used as virus host to test the inhibition effect of the compounds of the present invention on the cytopathic effect of the Vero cells caused by Herpes virus I and II.

HIV-1 protease = HIV-1 protease (Human immunodeficiency virus type 1 group M subtype B, UniProt P04585); assay: HIV-1 protease inhibition; assay type: biochemical
[1] = system: Vero (African green monkey kidney) cells; assay: 50% toxicity concentration in the anti-herpes virus screen (Vero cells); conditions: 50% toxity concentration, Table 3-1 (herpes virus screen, Vero cells)
influenza A virus = assay: Anti influenza A virus activity, cytopathic effect (CPE) in MDCK cells; assay type: cell-based
Excerpt: (§2) 4. Screening of the samples for the anti-influenza virus A and B activity: MDCK (canine kidney) cells were used as the virus host to test the inhibition effect of the compounds of the present invention on the cytopathic effect (CPE) of the cells caused by the virus.

herpes virus I (HSV-I) = assay: Anti herpes virus I activity, cytopathic effect in Vero cells; assay type: cell-based; conditions: read-out: Anti herpes virus I HSV-I (IC50)
Excerpt: as §1

[2] = system: MDCK (canine kidney) cells; assay: 50% toxicity concentration in the anti-influenza screen (MDCK cells); assay type: cell-based; conditions: 50% toxity concentration, Table 3-2 (influenza screen, MDCK cells)
Excerpt: as §2

hepatitis B virus (HBV) [3] = assay: HBeAg secretion in HepG2.2.15 culture supernatant (ELISA); assay type: cell-based; conditions: HepG2.2.15 supernatant, eighth day, read-out: HBeAg secreation IC50
Excerpt: (§3) Hepatitis B virus (HBV) transgenic human hepatoma carcinoma cell, HepG2.2.15 cell line, can secrete hepatitis B virus particles (containing antigen and DNA) into supernatant when being cultured.
(§4) Under action of antiviral drugs, the contents of HBsAg, HBeAg and viral DNA secreted from cells into the supernatant were detected and are compared with the contents of control groups without drugs, so that the antiviral activity of the compounds of the present invention can be measured as well as the cytotoxic effect of compounds of the present invention. The value concentration of the compounds of the present invention which caused 50% of cells dead and was measured with MTT method was CC50; and the value concentration of the compounds of the present invention which inhibited the secretion of HBsAg and HBeAg detected by ELISA method and inhibited 50% of viral DNA replication detected by fluorescent quantification PCR method was IC50.
(§5) HepG2.2.15 cells were inoculated on a 96-well plate, and the compounds of the present invention were added next day. The medium and the compound solutions of the same concentration were renewed periodically. The culture supernatants were collected on the eighth day to be detected. MTT was added to the cells on the 96-well plate, and MTT dissolving liquid was added after 4 hours to be reacted overnight. OD570 was measured next day on microplate reader. And the cytotoxicity of the compounds of the present invention to the HepG2.2.15 cells, the effect of the compounds of the present invention on the growth of the cells, and the concentration of the compound of the present invention (CC50) causing 50% of the cells dead were estimated according to the OD values.
(§6) HBsAg and HBeAg were detected with assaying kits (purchased from Sino-American biotechnological company). Samples were added to the coated strip plate, and the same amount of enzyme labeled conjugate was added, after reacting under 37° C. for 1 hour, the plate was washed 5 times. Colorant solutions A and B were added, and the reaction was stopped after 15 minutes, and OD450/630 was measured. The half inhibition rate IC50 of the sample for the HBV antigen was calculated according to the OD values.

hepatitis B virus (HBV) [4] = assay: HBsAg secretion in HepG2.2.15 culture supernatant (ELISA); assay type: cell-based; conditions: HepG2.2.15 supernatant, eighth day, read-out: HBsAg secreation IC50
Excerpt: as §3, §4, §5, §6

[5] = Cytotoxicity to HepG2.2.15 cells (MTT method); assay type: cell-based; conditions: human, HepG2.2.15 cells (HBV-transgenic human hepatoma cells), 50% death concentration, eighth day
Excerpt: as §3, §4, §5

hepatitis B virus (HBV) [6] = assay: HBV-DNA replication in HepG2.2.15 culture supernatant (fluorescent quantification PCR); assay type: cell-based
Excerpt: as §3, §4, §5
A suitable amount of culture supernatant was added into a same volume of virus extract solution, and was boiled after mixed uniformly, then centrifuged at 10000 rpm for 5 min under room temperature. A suitable amount of supernatant was collected for PCR amplification. Five HBV-DNA standard samples were used to set a standard curve. According to the obtained viral DNA replication value, the inhibition rates of HBV-DNA replication of the compound of the present invention at different concentrations were calculated, and then the half inhibition rates of the compounds were calculated to obtain IC50. For the samples that can not be calculated for IC50 value, they can be represented by ICX and given the corresponding concentration values.

HIV-1 integrase = target: T1, HIV-1 integrase (Human immunodeficiency virus type 1 group M subtype B, UniProt P04585); assay: HIV-1 integrase inhibition (ELISA, chain transfer); assay type: biochemical; conditions: enzyme inhibition
T1 construct: purified HIV-1 integrase
Procedure: 2. Screening of the compounds for the anti HIV-1 integrase activity: the synthesized 30 oligonucleotide (5′P-[…]-3′,3′-[…]-5′) was used as donor substrate, and the synthesized 20 oligonucleoside (5′-[…]-3′-biotin, biotin-3′-[…]-5′) was used as target substrate. On a 96-well plate, the donor substrate was added with purified HIV-1 integrase to conduct ELISA reaction. The product of chain transfer of target DNA was detected and stained in the biotin labeled alkaline phosphatase system, OD values were measured with microplate reader. Addition of the compounds of the present invention in the reaction system can be used to screen the inhibitor of the enzyme.

[7] = Human alphaherpesvirus 2, Vero cells, cytopathic effect

Row | Compound | IC50 (herpes virus II (HSV-II); [7]) [µg/mL] | TC50 [1] [µg/mL] | IC50 (influenza A virus) [µg/mL] | TC50 [2] [µg/mL] | IC50 (hepatitis B virus (HBV) [3]) [µM] | IC50 (hepatitis B virus (HBV) [4]) [µM] | CC50 [5] [µM] | other results
1 | COC(=O)c1nc(-c2csc([C@@H](NC(=O)c3csc([C@@H](NC(=O)OC(C)(C)C)C(C)C)n3)C(C)C)n2)oc1C [Wang 577.72] | 97.6 (≈ 169 µM) | 176.78 (≈ 306 µM) |  |  |  |  |  | IC50 (HIV-1 protease): 57.6 µM
2 | COC(=O)c1nc(-c2csc([C@@H](NC(=O)COCc3ccccc3)C(C)C)n2)oc1C [Wang 443.52] |  | 168.24 (≈ 379 µM) | 1.29 (≈ 2.91 µM) | 165.86 (≈ 374 µM) |  |  |  | IC50 (herpes virus I (HSV-I); Human alphaherpesvirus 1, Vero): 107 µg/mL (≈ 240 µM); IC50 (herpes virus II (HSV-II); Human alphaherpesvirus 2, Vero): 78.8 µg/mL (≈ 178 µM)
3 | Nc1nc2c(ncn2COCCO)c(=O)[nH]1 [ACV (acyclovir), acyclovir, reference compound] |  | >1000 |  |  |  |  |  | 
4 | COC(=O)c1coc([C@H](C)NC(=O)c2nc(-c3csc([C@@H](NC(=O)C4CC4)C(C)C)n3)oc2C)n1 [Wang 501.56-1] | 293 (≈ 585 µM) | 707.11 (≈ 1410 µM) | 1.18 (≈ 2.35 µM) | 303.69 (≈ 605 µM) |  |  |  | 
5 | COC(=O)c1nc(-c2csc([C@@H](NC(=O)c3cccc(F)c3)C(C)C)n2)oc1C [Wang417.46-P] | 107 (≈ 255 µM) | 198.43 (≈ 475 µM) | 0.9 (≈ 2.16 µM) | 422.43 (≈ 1010 µM) |  |  |  | 
6 | COC(=O)c1coc([C@H](C)NC(=O)c2nc(-c3csc([C@@H](NC(=O)C4CCCC4)C(C)C)n3)oc2C)n1 [Wang529.61-1] | 107 (≈ 201 µM) | 198.43 (≈ 375 µM) | 3.15 (≈ 5.95 µM) | 191.74 (≈ 362 µM) | 171 | 214 | 472 | 
7 | CCOC(=O)c1nc(-c2cccs2)[nH]c1CC(C)C [Wang278-1] |  |  |  |  | 19 | 34.1 | 90.3 | DNA replication IC88 (hepatitis B virus (HBV) [6]; ICX: concentration with 88% inhibition of HBV-DNA replication, IC50 not calculable): IC88 = 1.37 uM
8 | COC(=O)c1nc(-c2nccs2)sc1Cc1ccccc1 [Wang316] |  |  |  |  | 70.5 | 33.7 | 174 | IC20 (hepatitis B virus (HBV) [6]; Hepatitis B virus, HepG2.2.15): 31.3 µM
9 | COC(=O)c1nc(-c2csc([C@@H](NC(=O)c3ccccc3)C(C)C)n2)oc1C [Wang 399.46] |  |  | 1.14 (≈ 2.85 µM) | 166.67 (≈ 417 µM) |  |  |  | IC50 (HIV-1 integrase): 365 µM
10 | COC(=O)c1nc(-c2csc([C@@H](NC(=O)C3CC3)C(C)C)n2)oc1C [Wang363.43-1] |  | 707.11 (≈ 1950 µM) | 3.97 (≈ 10.9 µM) | 500 (≈ 1380 µM) |  |  |  | IC50 (herpes virus I (HSV-I); Human alphaherpesvirus 1, Vero cells, cytopathic effect): 369 µg/mL (≈ 1020 µM)
11 | CCCCc1sc(-c2nccs2)nc1C(=O)OC [Wang282] |  |  |  |  | 57.3 | 58.8 | 397 | IC50 (hepatitis B virus (HBV) [6]; Hepatitis B virus, HepG2.2.15 supernatant, eighth day, fluorescent quantification PCR, read-out: DNA replication IC50): 19.4 µM
